What is called IC50 is the concentration that inhibits the measured activity by half.

This test addresses T1, Carnitine palmitoyl transferase I liver isoform (Sus scrofa, UniProt Q9MYX2).
T1 sequence (Q9MYX2 whole entry): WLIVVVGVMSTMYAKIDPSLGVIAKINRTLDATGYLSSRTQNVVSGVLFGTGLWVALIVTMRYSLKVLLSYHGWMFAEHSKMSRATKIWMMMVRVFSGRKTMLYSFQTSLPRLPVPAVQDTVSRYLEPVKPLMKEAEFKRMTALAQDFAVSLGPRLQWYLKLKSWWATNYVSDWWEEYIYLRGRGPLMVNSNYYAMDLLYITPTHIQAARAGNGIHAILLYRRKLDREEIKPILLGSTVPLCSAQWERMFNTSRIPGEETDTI
The test is described as follows: ChEBML_44012. How it is done: Compound was tested for its inhibitory activity against carnitine palmitoyl transferase-A (CPT-A)

In turn, `CCCCCCCCCCCCC1(C(=O)OC)CO1` (configuration not stated) [2-Dodecyl-oxirane-2-carboxylic acid methyl ester] yielded a 50% inhibitory concentration (IC50) of 600 nM.

Compound `CCCCCCCCCCC1(C(=O)OC)CO1` (configuration not stated) [2-Decyl-oxirane-2-carboxylic acid methyl ester] returned an IC50 of 680 nM.

`CCCCCCCCCCCCCCC1(C(=O)OC)CO1` (racemic) [2-Tetradecyl-oxirane-2-carboxylic acid methyl ester]: the IC50 was 300 nM. Against the preceding compound, the IC50 is about 2.3-fold lower.

As to `CCCCCCCCCCCCCC1(C(=O)OC)CO1` (configuration not stated) [2-Tridecyl-oxirane-2-carboxylic acid methyl ester], the IC50 was 500 nM.

In turn, `CCCCCCC1(C(=O)OC)CO1` (configuration not stated) [2-Hexyl-oxirane-2-carboxylic acid methyl ester] had an IC50 of 136000 nM.

On to `CCCCCCCCCCCCCCC1(C(=O)O)CO1` (stereo not drawn) [(+/-)2-Tetradecyl-oxirane-2-carboxylic acid], for which 900 nM corresponded to half-maximal inhibition (IC50).

`CCCCCCCCCCCC1(C(=O)OC)CO1` (configuration not stated) [2-Undecyl-oxirane-2-carboxylic acid methyl ester] showed an IC50 of 1160 nM.
